The nature of the experiment: Inhibition of spike glycoprotein S in SARS-CoV-2 pseudovirus infected human 293T/ACE2 cells assessed as inhibition of viral infection measured after 48 hrs by luciferase reporter gene assay.

For `C[C@@H]1O[C@@H](O[C@H]2[C@H](O[C@H]3CC[C@]4(C)[C@H]5CC=C6[C@@H]7CC(C)(C)CC[C@]7(C(=O)NCCc7ccccc7)CC[C@@]6(C)[C@]5(C)CC[C@H]4C3(C)C)O[C@H](CO)[C@@H](O[C@@H]3O[C@@H](C)[C@H](O)[C@@H](O)[C@H]3O)[C@@H]2O)[C@H](O)[C@H](O)[C@H]1O`, the IC50 worked out at 7.37 µM. With `C[C@@H]1O[C@@H](O[C@H]2[C@H](O[C@H]3CC[C@]4(C)[C@H]5CC=C6[C@@H]7CC(C)(C)CC[C@]7(C(=O)NCc7ccccc7Br)CC[C@@]6(C)[C@]5(C)CC[C@H]4C3(C)C)O[C@H](CO)[C@@H](O[C@@H]3O[C@@H](C)[C@H](O)[C@@H](O)[C@H]3O)[C@@H]2O)[C@H](O)[C@H](O)[C@H]1O` the figure was 9.57 µM; with `COc1ccccc1CNC(=O)[C@]12CCC(C)(C)C[C@H]1C1=CC[C@@H]3[C@@]4(C)CC[C@H](O[C@@H]5O[C@H](CO)[C@@H](O[C@@H]6O[C@@H](C)[C@H](O)[C@@H](O)[C@H]6O)[C@H](O)[C@H]5O[C@@H]5O[C@@H](C)[C@H](O)[C@@H](O)[C@H]5O)C(C)(C)[C@@H]4CC[C@@]3(C)[C@]1(C)CC2`, 16.8 µM. The value for `C[C@@H]1O[C@@H](O[C@H]2[C@H](O[C@H]3CC[C@]4(C)[C@H]5CC=C6[C@@H]7CC(C)(C)CC[C@]7(C(=O)NCc7ccccn7)CC[C@@]6(C)[C@]5(C)CC[C@H]4C3(C)C)O[C@H](CO)[C@@H](O[C@@H]3O[C@@H](C)[C@H](O)[C@@H](O)[C@H]3O)[C@@H]2O)[C@H](O)[C@H](O)[C@H]1O` was > 20 µM. With `C[C@@H]1O[C@@H](O[C@H]2[C@H](O[C@H]3CC[C@]4(C)[C@H]5CC=C6[C@@H]7CC(C)(C)CC[C@]7(C(=O)Nc7ccccc7)CC[C@@]6(C)[C@]5(C)CC[C@H]4C3(C)C)O[C@H](CO)[C@@H](O[C@@H]3O[C@@H](C)[C@H](O)[C@@H](O)[C@H]3O)[C@@H]2O)[C@H](O)[C@H](O)[C@H]1O`, the IC50 is 18.1 µM. With `C[C@@H]1O[C@@H](O[C@H]2[C@H](O[C@H]3CC[C@]4(C)[C@H]5CC=C6[C@@H]7CC(C)(C)CC[C@]7(C(=O)NCCCc7ccccc7)CC[C@@]6(C)[C@]5(C)CC[C@H]4C3(C)C)O[C@H](CO)[C@@H](O[C@@H]3O[C@@H](C)[C@H](O)[C@@H](O)[C@H]3O)[C@@H]2O)[C@H](O)[C@H](O)[C@H]1O` the figure was 13.1 µM.

With `C[C@@H]1O[C@@H](O[C@H]2[C@H](O[C@H]3CC[C@]4(C)[C@H]5CC=C6[C@@H]7CC(C)(C)CC[C@]7(C(=O)Nc7ccccc7Cl)CC[C@@]6(C)[C@]5(C)CC[C@H]4C3(C)C)O[C@H](CO)[C@@H](O[C@@H]3O[C@@H](C)[C@H](O)[C@@H](O)[C@H]3O)[C@@H]2O)[C@H](O)[C@H](O)[C@H]1O`, the IC50 was determined as 6.27 µM. Take `C[C@@H]1O[C@@H](O[C@H]2[C@H](O[C@H]3CC[C@]4(C)[C@H]5CC=C6[C@@H]7CC(C)(C)CC[C@]7(C(=O)NCc7cccs7)CC[C@@]6(C)[C@]5(C)CC[C@H]4C3(C)C)O[C@H](CO)[C@@H](O[C@@H]3O[C@@H](C)[C@H](O)[C@@H](O)[C@H]3O)[C@@H]2O)[C@H](O)[C@H](O)[C@H]1O`: the IC50 turned out to be 5.89 µM. On to `C[C@@H]1O[C@@H](O[C@H]2[C@H](O[C@H]3CC[C@]4(C)[C@H]5CC=C6[C@@H]7CC(C)(C)CC[C@]7(C(=O)NCc7ccccc7Cl)CC[C@@]6(C)[C@]5(C)CC[C@H]4C3(C)C)O[C@H](CO)[C@@H](O[C@@H]3O[C@@H](C)[C@H](O)[C@@H](O)[C@H]3O)[C@@H]2O)[C@H](O)[C@H](O)[C@H]1O`, for which the IC50 is 6.32 µM. In the case of `COc1cccc(NC(=O)[C@]23CCC(C)(C)C[C@H]2C2=CC[C@@H]4[C@@]5(C)CC[C@H](O[C@@H]6O[C@H](CO)[C@@H](O[C@@H]7O[C@@H](C)[C@H](O)[C@@H](O)[C@H]7O)[C@H](O)[C@H]6O[C@@H]6O[C@@H](C)[C@H](O)[C@@H](O)[C@H]6O)C(C)(C)[C@@H]5CC[C@@]4(C)[C@]2(C)CC3)c1`, the IC50 was 8.33 µM. With `C[C@@H]1O[C@@H](O[C@H]2[C@H](O[C@H]3CC[C@]4(C)[C@H]5CC=C6[C@@H]7CC(C)(C)CC[C@]7(C(=O)OCc7ccccc7)CC[C@@]6(C)[C@]5(C)CC[C@H]4C3(C)C)O[C@H](CO)[C@@H](O[C@@H]3O[C@@H](C)[C@H](O)[C@@H](O)[C@H]3O)[C@@H]2O)[C@H](O)[C@H](O)[C@H]1O` the figure was 16.8 µM; with `C[C@@H]1O[C@@H](O[C@H]2[C@H](O[C@H]3CC[C@]4(C)[C@H]5CC=C6[C@@H]7CC(C)(C)CC[C@]7(C(=O)NCc7ccccc7F)CC[C@@]6(C)[C@]5(C)CC[C@H]4C3(C)C)O[C@H](CO)[C@@H](O[C@@H]3O[C@@H](C)[C@H](O)[C@@H](O)[C@H]3O)[C@@H]2O)[C@H](O)[C@H](O)[C@H]1O`, 5.68 µM; with `C[C@@H]1O[C@@H](O[C@H]2[C@H](O[C@H]3CC[C@]4(C)[C@H]5CC=C6[C@@H]7CC(C)(C)CC[C@]7(C(=O)N(C)Cc7ccccc7)CC[C@@]6(C)[C@]5(C)CC[C@H]4C3(C)C)O[C@H](CO)[C@@H](O[C@@H]3O[C@@H](C)[C@H](O)[C@@H](O)[C@H]3O)[C@@H]2O)[C@H](O)[C@H](O)[C@H]1O`, 7.76 µM. For `COc1ccc(NC(=O)[C@]23CCC(C)(C)C[C@H]2C2=CC[C@@H]4[C@@]5(C)CC[C@H](O[C@@H]6O[C@H](CO)[C@@H](O[C@@H]7O[C@@H](C)[C@H](O)[C@@H](O)[C@H]7O)[C@H](O)[C@H]6O[C@@H]6O[C@@H](C)[C@H](O)[C@@H](O)[C@H]6O)C(C)(C)[C@@H]5CC[C@@]4(C)[C@]2(C)CC3)cc1`, the IC50 worked out at 9.97 µM. With `O=C(/C=C/c1ccc(O)c2oc(-c3ccc(O)c(O)c3)cc12)O[C@H](Cc1ccc(O)c(O)c1)C(=O)O` the figure was 3.85 µM. With `COc1ccccc1NC(=O)[C@]12CCC(C)(C)C[C@H]1C1=CC[C@@H]3[C@@]4(C)CC[C@H](O[C@@H]5O[C@H](CO)[C@@H](O[C@@H]6O[C@@H](C)[C@H](O)[C@@H](O)[C@H]6O)[C@H](O)[C@H]5O[C@@H]5O[C@@H](C)[C@H](O)[C@@H](O)[C@H]5O)C(C)(C)[C@@H]4CC[C@@]3(C)[C@]1(C)CC2` the figure was 5.54 µM; with `C[C@@H]1O[C@@H](O[C@H]2[C@H](O[C@H]3CC[C@]4(C)[C@H]5CC=C6[C@@H]7CC(C)(C)CC[C@]7(C(=O)NCc7ccccc7)CC[C@@]6(C)[C@]5(C)CC[C@H]4C3(C)C)O[C@H](CO)[C@@H](O[C@@H]3O[C@@H](C)[C@H](O)[C@@H](O)[C@H]3O)[C@@H]2O)[C@H](O)[C@H](O)[C@H]1O`, 4.37 µM. With `C[C@@H]1O[C@@H](O[C@H]2[C@H](O[C@H]3CC[C@]4(C)[C@H]5CC=C6[C@@H]7CC(C)(C)CC[C@]7(C(=O)NCc7ccco7)CC[C@@]6(C)[C@]5(C)CC[C@H]4C3(C)C)O[C@H](CO)[C@@H](O[C@@H]3O[C@@H](C)[C@H](O)[C@@H](O)[C@H]3O)[C@@H]2O)[C@H](O)[C@H](O)[C@H]1O` the figure was > 20 µM.

The record behind these values is BindingDB's records for doi:10.1016/j.ejmech.2021.113242 (South China Agricultural University, 2021).
